Values quoted from earlier work in US20070254312A1, “Protein Kinase Inhibitors and Methods for Identiying Same” (priority 2004, published 2007).
Starred links: 1 amine or outer side, 2 acyl side, 3 side chain; linkers in the order of their positions; H or OH if unused. Non-standard residues stand in square brackets, D forms with d. Residues, ends and D or L forms follow the SMILES beside them. *: point of attachment. Benzoyl(4-(pyrrol-1-yl)) = O=C(c1ccc(-n2cccc2)cc1)*; Phenylacetyl(3,4-Cl2) = O=C(Cc1ccc(Cl)c(Cl)c1)*; Cysteamide = C(CS[*:3])N[*:1]; Dap = NC[C@H](N)C(=O)O

Target: T1, PKC ι (Homo sapiens, UniProt P41743)
T1 construct: purchased Panvera
T1 sequence (P41743 1-596): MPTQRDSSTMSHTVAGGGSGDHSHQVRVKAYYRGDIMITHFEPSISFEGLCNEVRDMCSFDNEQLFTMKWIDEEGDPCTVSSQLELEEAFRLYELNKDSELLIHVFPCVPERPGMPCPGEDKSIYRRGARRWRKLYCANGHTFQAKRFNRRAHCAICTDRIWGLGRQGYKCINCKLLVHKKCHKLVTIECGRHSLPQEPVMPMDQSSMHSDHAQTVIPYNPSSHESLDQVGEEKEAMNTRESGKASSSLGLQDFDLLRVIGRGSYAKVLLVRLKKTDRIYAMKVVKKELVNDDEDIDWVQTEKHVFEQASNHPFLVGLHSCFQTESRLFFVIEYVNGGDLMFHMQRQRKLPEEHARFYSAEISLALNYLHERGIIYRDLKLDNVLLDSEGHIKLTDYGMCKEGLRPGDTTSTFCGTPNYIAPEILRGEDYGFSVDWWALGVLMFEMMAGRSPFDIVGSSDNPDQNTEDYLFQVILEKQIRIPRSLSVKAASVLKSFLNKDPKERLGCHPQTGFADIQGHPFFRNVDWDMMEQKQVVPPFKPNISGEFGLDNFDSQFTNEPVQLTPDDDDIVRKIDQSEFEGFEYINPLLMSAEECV
Details: literature values; relative to most potently inhibited isoform (=1); cited from earlier work

For `CC(C)C[C@H](NC(=O)[C@H](C)NC(=O)CNC(=O)[C@H](CCCNC(=N)N)NC(=O)[C@H](CCCNC(=N)N)NC(=O)[C@H](C)NC(=O)Cc1ccc(Cl)c(Cl)c1)C(=O)N[C@@H](CCCNC(=N)N)C(=O)N[C@@H](CNC(=O)c1ccc(-n2cccc2)cc1)C(=O)N[C@@H](C)C(=O)NCCS` [Compound 6] ({Phenylacetyl(3,4-Cl2)}-ARRGALR[Dap](Benzoyl(4-(pyrrol-1-yl)))A-Cysteamide), the “Fold selectivity (IC50), PKC ι” value is given as 940 fold.
